Results reported in PMC7156456, “Modulation of virus-induced NF-κB signaling by NEMO coiled coil mimics” (Nature Communications, 2020).

Tests used:
[1] = Thermal denaturation by circular dichroism; assay type: physicochemical; conditions: 5–95 °C
Experimental: […] The spectra were averaged over 4 scans with the background subtracted to the analogous experimental conditions. Each sample was prepared in a 50 mM potassium fluoride solution in water (pH 7.4) to a final concentration of 20 μM. The concentrations of each peptide were determined by the UV absorption at 280 nm.

BC-3-luc PEL xenograft = assay: PEL in vivo xenograft mouse model; set-up: species or system NOD-SCID mice; conditions: 20 mg/kg, 9 consecutive days
Experimental: We injected BC-3-luc PEL cells into the peritoneal cavity of NOD-SCID mice and monitored tumor burden by bioluminescence imaging. […] Although the overall performance of our peptide is highly encouraging, further optimization of delivery and dosing will be essential to achieve more robust responses in vivo.
[…] BC3NFRen-luc#3 were injected intraperitoneally into 4-6 week-old male NOD/SCID mice (Jackson Laboratory, stock 001303). […] We monitored tumor burden or bioluminescence (photons/s/cm^2/steradian) by live imaging and weighing, with the sacrificial endpoint determined to be a net gain or loss of 10% body weight over a week.

Serum stability assay = assay type: in vitro ADME; conditions: 25% fetal bovine serum in RPMI, HPLC, read-out: initial peptide remained intact
Experimental: Time points of 30 min, 1 h, 2 h, 8 h, and 24 h were analyzed in triplicate. Each reaction was started upon addition of FBS to 60 μM peptide. Reactions were quenched at time points with addition of 100% EtOH, chilled on ice for 10 min, and pelleted at 11,752 × g. Supernatant was injected onto an Agilent analytical HPLC equipped with an XTerra RP18 3.5 µm 2.1 × 150 mm column (Part No. 186000410) and visualized at 220 nm. Integration of peak areas was used to determine percent degradation of peptides. Mass of cleaved products were determined using Matrix assisted laser desorption ion time of flight (MALDI-TOF) spectroscopy.

vFLIP/NEMO interaction = target: T1, vFLIP/NEMO interaction (Human herpesvirus 8 type P, UniProt F5HEZ4); assay: biochemical; assay type: binding, Kaposi's sarcoma herpesvirus (KSHV)
T1 construct: vFLIP (1-178) and NEMO (150-272) were cloned into pET28a vector; made in house; host or cells: E. coli BL21(DE3)
T1 sequence (F5HEZ4 1-178): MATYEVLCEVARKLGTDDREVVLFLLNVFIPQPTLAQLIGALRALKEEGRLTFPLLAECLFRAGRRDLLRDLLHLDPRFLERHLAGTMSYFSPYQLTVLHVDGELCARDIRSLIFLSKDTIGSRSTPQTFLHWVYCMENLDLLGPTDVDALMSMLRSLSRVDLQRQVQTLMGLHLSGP
Experimental: For the competition assay, two-fold serial dilution of the different NEMO mimetics were prepared in DMSO then diluted in TR-FRET buffer to 5× and added in triplicates to a 384 low volume well plate. His-MBP vFLIP diluted to 5× in TR-FRET buffer (250 nM) was then added to each well and incubated for 15 min at RT. His-Biotinylated NEMO diluted to 5× in TR-FRET buffer (250 nM) was the added to the mixture followed by addition of 5× or 200 nM) streptavidin-XL665 and (5× or 1 nM) of the antibody-tagged fluorophore anti-MBPK labeled with Europium cryptate). The final concentration of the NEMO mimetics ranged from 0.195 μM to 100 μM. Total assay volume was 20 μL. The plate was incubated for 1 h at RT then read using BioTek Synergy NEO. Titration of non-biotinylated NEMO (0.0195-10 μM) was used as a positive control in every run. The effect of the peptides on vFLIP/NEMO interaction was normalized to the control and expressed as percent inhibition (% of control):
%ofcontrol=FRETCHD−FRETbackground/FRETcontrol−FRETbackground where FRET control is the TR-FRET signal in DMSO treated wells (highest signal) and FRET background is TR-FRET signal in wells containing the highest concentration of non-biotinylated NEMO (10 μM) which provides the lowest signal. Normalized TR-FRET data was plotted using Graphpad Prism.
Supplementary Figure 1. Schematic representation of the Time-resolved Fluorescence Energy Transfer (TR-FRET) binding assay. (a) Complexes of recombinant his-MBP vFLIP, biotinylated His-NEMO, Europium cryptate conjugated anti-MBP antibody and strepavidin XL665 were used to generate proximity for a FRET signal between the donor fluorophore Europium cryptate and the acceptor fluorophore strepavidin XL665. The TR-FRET signal was calculated as a ratiometric measurement of the acceptor fluoroscence emission at 665nm over the donor emission at 620nm multiplied by 10000. […] (d) Size exclusion chromatography of NEMO-vFLIP complex indicating a shift to the left in absorbance at 280nm when NEMO binds specifically to vFLIP. […]

## CC[C@H](C)[C@H](NC(=O)[C@H](CC(C)C)NC(=O)[C@H](CCC(=O)O)NC(=O)[C@H](CC(=O)O)NC(=O)[C@@H](NC(=O)[C@H](CCCCn1cc(COCc2cn(CCCC[C@H](NC(=O)[C@H](CC(C)C)NC(=O)[C@H](CCCNC(=N)N)NC(=O)[C@H](CCCNC(=N)N)NC(=O)[C@@H](NC(=O)[C@H](CCC(=O)NC3CCCCC3)NC(=O)[C@H](CCC(=O)O)NC(=O)[C@H](Cc3c[nH]c4ccccc34)NC(=O)[C@H](CC(C)C)NC(=O)[C@H](CCC(N)=O)NC(=O)[C@H](CCCNC(=N)N)NC(=O)[C@@H](NC(=O)[C@H](Cc3c[nH]c4ccccc34)NC(=O)[C@H](CCC(=O)O)NC(C)=O)[C@@H](C)CC)[C@@H](C)CC)C(N)=O)nn2)nn1)NC(=O)[C@H](CCCNC(=N)N)NC(=O)[C@H](Cc1ccccc1)NC(=O)[C@H](CC(C)C)NC(=O)[C@H](CCCNC(=N)N)NC(=O)[C@H](Cc1c[nH]cn1)NC(=O)[C@@H](NC(=O)[C@H](CCC(=O)O)NC(C)=O)[C@@H](C)CC)[C@@H](C)CC)C(=O)N[C@@H](CCCNC(=N)N)C(N)=O [CHD3^NEMO]
[1]
  conformational stability (helix percentage): retain a significant proportion of helix percentage at high temperatures
BC-3-luc PEL xenograft
  toxicity: without any observed toxicity
Serum stability assay
  remaining at 24 h, 60 μM: ~80%
vFLIP/NEMO interaction
  Ki: 6.9 ± 1.4 µM
